# Results from ChEMBL document CHEMBL5029143, “Discovery of New Potent Positive Allosteric Modulators of Dopamine D2 Receptors: Insights into the Bioisosteric Replacement of Proline to 3-Furoic Acid in the Melanostatin Neuropeptide” (J Med Chem, 2021).
# Residues, ends and D or L forms follow the SMILES beside them.
# Assays:
# [1] = Neurotoxicity in human SH-SY5Y cells assessed as reduction in cell viability at 200 uM measured after 48 hrs by MTT reduction assay (Rvb= 100 +/- 2.79%); type: cell-based; conditions: read-out: Activity
# [2] = molecular target: D(2) dopamine receptor (Homo sapiens) (UniProt P14416); conditions: CHO, filed as positive allosteric modulator, dose 0.01 nM, time 10.0 min
# Sequence of D(2) dopamine receptor (Homo sapiens) (P14416 whole entry): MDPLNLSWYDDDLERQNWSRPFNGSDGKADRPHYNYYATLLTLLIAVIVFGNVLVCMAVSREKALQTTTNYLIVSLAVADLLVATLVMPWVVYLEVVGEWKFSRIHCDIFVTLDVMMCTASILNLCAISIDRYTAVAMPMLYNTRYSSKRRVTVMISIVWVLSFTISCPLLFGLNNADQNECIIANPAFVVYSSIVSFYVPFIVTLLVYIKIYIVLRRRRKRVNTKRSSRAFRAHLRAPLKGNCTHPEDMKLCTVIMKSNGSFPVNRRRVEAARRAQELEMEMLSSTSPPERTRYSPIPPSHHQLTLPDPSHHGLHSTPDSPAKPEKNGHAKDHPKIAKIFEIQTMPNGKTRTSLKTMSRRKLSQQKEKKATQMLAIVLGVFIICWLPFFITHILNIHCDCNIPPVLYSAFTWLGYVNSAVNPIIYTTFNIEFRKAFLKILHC
# [3] = Neurotoxicity in human SH-SY5Y cells assessed as reduction in cell viability at 100 uM measured after 48 hrs by MTT reduction assay (Rvb= 100 +/- 2.79%); type: cell-based; conditions: read-out: Activity
# [4] = tested on: SH-SY5Y; experiment: Cytotoxicity against human differentiated SH-SY5Y cells assessed as reduction in cell viability at 100 uM measured after 48 hrs by phase contrast microscopic analysis; type: cell-based
SMILES,"viability at 48 h, 200 µM [1]",Emax [2],"viability at 48 h, 100 µM [3]",Activity [4]
CC(C)C[C@H](NC(=O)c1ccoc1)C(=O)NCC(N)=O,86%,,,
CC(C)C[C@H](NC(=O)[C@@H]1CCCN1)C(=O)NCC(N)=O (H-Pro-Leu-Gly-NH2),,93.6%,,
NCCc1ccc(O)c(O)c1 [DOPAMINE],66.4%,,96.9%,
NCCc1cc(O)c(O)cc1O [OXIDOPAMINE],4.06%,,48.6%,Toxic
